Measurements from US7179830B2, “Substituted thienoimidazoles useful for disease treatment and prevention” (Sanofi-aventis Deutschland GmbH, priority 2003, dated 2007).
Counter-ions that a name gives are not always drawn.

How the values were obtained:
Type in all cases: cell-based
[1] = molecular target: T1, NHE3 (Homo sapiens, UniProt P48764); experiment: Determination of the NHE inhibition: recovery of intracellular pH after acidification (BCECF fluorescence), NHE3; conditions: for IC50: pH recovery registered at three minutes
T1 construct: host or cells: cells, not specified
T1 sequence (P48764 26-834): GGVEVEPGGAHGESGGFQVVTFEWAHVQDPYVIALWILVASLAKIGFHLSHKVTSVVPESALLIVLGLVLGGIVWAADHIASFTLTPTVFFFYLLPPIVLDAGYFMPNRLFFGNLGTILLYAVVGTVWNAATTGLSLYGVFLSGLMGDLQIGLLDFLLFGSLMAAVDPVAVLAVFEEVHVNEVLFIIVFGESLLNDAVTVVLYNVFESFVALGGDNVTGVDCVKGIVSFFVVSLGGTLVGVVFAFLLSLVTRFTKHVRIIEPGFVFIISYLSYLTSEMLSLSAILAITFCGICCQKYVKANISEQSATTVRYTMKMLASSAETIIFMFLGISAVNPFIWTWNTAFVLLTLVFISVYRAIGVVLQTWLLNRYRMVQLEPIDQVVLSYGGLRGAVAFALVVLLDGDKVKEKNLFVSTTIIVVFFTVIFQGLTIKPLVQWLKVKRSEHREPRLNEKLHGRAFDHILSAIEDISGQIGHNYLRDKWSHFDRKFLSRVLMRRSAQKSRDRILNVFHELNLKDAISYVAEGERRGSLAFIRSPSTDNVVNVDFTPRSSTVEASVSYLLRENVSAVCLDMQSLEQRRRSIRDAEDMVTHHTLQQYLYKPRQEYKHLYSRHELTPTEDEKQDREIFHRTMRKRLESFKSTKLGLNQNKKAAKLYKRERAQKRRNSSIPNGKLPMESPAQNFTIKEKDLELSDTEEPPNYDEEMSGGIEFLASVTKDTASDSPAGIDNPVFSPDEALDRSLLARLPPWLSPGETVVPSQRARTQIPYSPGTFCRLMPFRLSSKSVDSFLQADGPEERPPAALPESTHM
Procedure: [drawing 14] is obtained by adding saturated sodium hydrogencarbonate solution to a suspension of 306 mg of 2-(2-chloro-4-methyl-3-thienylamino)-1H-thieno[3,4-d]imidazole hydrochloride (example 5) in 40 ml of water, in the course of which a pH of 10 is established. After the suspension had been stirred at room temperature for 1 hour, the solid was filtered off and washed repeatedly with water, and the product was dried in an air stream. Colorless crystalline product, decomposition point from 180° C. Pharmacological Data: Determination of the NHE Inhibition Test Description:
This test determined the recovery of the intracellular pH (pHi) after acidification, and this recovery occurs in the case of functional NHE even under bicarbonate-free conditions. To this end, the pHi was determined using the pH-sensitive fluorescent dye BCECF (Calbiochem, the BCECF-AM precursor is used). The cells were initially loaded with BCECF. The BCECF fluorescence was determined in a Ratio Fluorescence Spectrometer (Photon Technology International, South Brunswick, N.J., USA) at excitation wavelengths of 505 and 440 nm and an emission wavelength of 535 nm and converted to the pHi by means of calibration curves. The cells had already been incubated in NH4Cl buffer (pH 7.4) in the course of the BCECF loading (NH4Cl buffer: 115 mM NaCl, 20 mM NH4Cl, 5 mM KCl, 1 mM CaCl2, 1 mM MgSO4, 20 mM Hepes, 5 mM glucose, 1 mg/ml BSA; a pH of 7.4 is established using 1 M NaOH). The intracellular acidification is induced by adding 975 μl of an NH4Cl-free buffer (see below) to 25 μl aliquots of the cells incubated in NH4Cl buffer. The subsequent rate of the pH recovery was registered at two minutes for NHE1, at five minutes for NHE2 and at three minutes for NHE3. For the calculation of the inhibitory potency of the tested substances, the cells were initially investigated in buffers in which complete or absolutely no pH recovery took place. For complete pH recovery (100%), the cells were incubated in Na^+-containing buffer (133.8 mM NaCl, 4.7 mM KCl, 1.25 mM CaCl2, 1.25 mM MgCl2, 0.97 mM Na2HPO4, 0.23 mM NaH2PO4, 5 mM Hepes, 5 mM glucose, a pH of 7.0 is established using 1 M NaOH). For the determination of the 0% value, the cells were incubated in an Na^+-free buffer (133.8 mM choline chloride, 4.7 mM KCl, 1.25 mM CaCl2, 1.25 mM MgCl2, 0.97 mM K2HPO4, 0.23 mM KH2PO4, 5 mM Hepes, 5 mM glucose, a pH of 7.0 is established using 1 M KOH). The substances to be tested were made up in the Na^+-containing buffer. The recovery of the intracellular pH at each tested concentration of a substance was expressed in percent of the maximum recovery. The percentages of the pH recovery were used to calculate the IC50 value of the particular substance for the individual NHE subtypes by means of the program Sigma-Plot.

[2] = molecular target: NHE1 (Homo sapiens, UniProt P19634); experiment: NHE inhibition, NHE1 subtype; conditions: in a therapeutically utilizable concentration range
Chain of NHE1 (P19634 whole entry, species assumed): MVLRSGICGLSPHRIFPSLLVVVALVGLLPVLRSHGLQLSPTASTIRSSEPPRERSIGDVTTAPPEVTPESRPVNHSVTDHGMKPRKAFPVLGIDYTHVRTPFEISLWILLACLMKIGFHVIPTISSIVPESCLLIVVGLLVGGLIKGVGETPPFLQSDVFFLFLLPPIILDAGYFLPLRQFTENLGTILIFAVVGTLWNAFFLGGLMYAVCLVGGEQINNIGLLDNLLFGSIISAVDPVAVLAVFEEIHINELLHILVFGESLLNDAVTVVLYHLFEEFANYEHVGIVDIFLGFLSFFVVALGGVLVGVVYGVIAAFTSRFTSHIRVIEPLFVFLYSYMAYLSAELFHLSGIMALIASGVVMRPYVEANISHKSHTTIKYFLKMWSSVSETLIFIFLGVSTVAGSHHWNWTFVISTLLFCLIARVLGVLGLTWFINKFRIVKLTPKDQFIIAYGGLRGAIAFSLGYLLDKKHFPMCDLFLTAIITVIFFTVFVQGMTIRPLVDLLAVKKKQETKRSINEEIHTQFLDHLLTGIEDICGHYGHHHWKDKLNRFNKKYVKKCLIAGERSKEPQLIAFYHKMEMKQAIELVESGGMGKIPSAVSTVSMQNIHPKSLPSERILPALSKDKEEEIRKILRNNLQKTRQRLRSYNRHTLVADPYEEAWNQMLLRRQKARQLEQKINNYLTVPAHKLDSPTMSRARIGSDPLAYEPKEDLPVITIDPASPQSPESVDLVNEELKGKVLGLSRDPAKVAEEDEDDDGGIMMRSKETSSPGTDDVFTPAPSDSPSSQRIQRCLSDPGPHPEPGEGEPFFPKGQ
Procedure: (§1) This test determined the recovery of the intracellular pH (pHi) after acidification, and this recovery occurs in the case of functional NHE even under bicarbonate-free conditions. To this end, the pHi was determined using the pH-sensitive fluorescent dye BCECF (Calbiochem, the BCECF-AM precursor is used). The cells were initially loaded with BCECF. The BCECF fluorescence was determined in a Ratio Fluorescence Spectrometer (Photon Technology International, South Brunswick, N.J., USA) at excitation wavelengths of 505 and 440 nm and an emission wavelength of 535 nm and converted to the pHi by means of calibration curves. The cells had already been incubated in NH4Cl buffer (pH 7.4) in the course of the BCECF loading (NH4Cl buffer: 115 mM NaCl, 20 mM NH4Cl, 5 mM KCl, 1 mM CaCl2, 1 mM MgSO4, 20 mM Hepes, 5 mM glucose, 1 mg/ml BSA; a pH of 7.4 is established using 1 M NaOH). The intracellular acidification is induced by adding 975 μl of an NH4Cl-free buffer (see below) to 25 μl aliquots of the cells incubated in NH4Cl buffer. The subsequent rate of the pH recovery was registered at two minutes for NHE1, at five minutes for NHE2 and at three minutes for NHE3. For the calculation of the inhibitory potency of the tested substances, the cells were initially investigated in buffers in which complete or absolutely no pH recovery took place. […]

[3] = molecular target: T2, NHE2 (Homo sapiens, UniProt Q9UBY0); experiment: NHE inhibition, NHE2 subtype; conditions: in a therapeutically utilizable concentration range
T2 sequence (Q9UBY0 1-812): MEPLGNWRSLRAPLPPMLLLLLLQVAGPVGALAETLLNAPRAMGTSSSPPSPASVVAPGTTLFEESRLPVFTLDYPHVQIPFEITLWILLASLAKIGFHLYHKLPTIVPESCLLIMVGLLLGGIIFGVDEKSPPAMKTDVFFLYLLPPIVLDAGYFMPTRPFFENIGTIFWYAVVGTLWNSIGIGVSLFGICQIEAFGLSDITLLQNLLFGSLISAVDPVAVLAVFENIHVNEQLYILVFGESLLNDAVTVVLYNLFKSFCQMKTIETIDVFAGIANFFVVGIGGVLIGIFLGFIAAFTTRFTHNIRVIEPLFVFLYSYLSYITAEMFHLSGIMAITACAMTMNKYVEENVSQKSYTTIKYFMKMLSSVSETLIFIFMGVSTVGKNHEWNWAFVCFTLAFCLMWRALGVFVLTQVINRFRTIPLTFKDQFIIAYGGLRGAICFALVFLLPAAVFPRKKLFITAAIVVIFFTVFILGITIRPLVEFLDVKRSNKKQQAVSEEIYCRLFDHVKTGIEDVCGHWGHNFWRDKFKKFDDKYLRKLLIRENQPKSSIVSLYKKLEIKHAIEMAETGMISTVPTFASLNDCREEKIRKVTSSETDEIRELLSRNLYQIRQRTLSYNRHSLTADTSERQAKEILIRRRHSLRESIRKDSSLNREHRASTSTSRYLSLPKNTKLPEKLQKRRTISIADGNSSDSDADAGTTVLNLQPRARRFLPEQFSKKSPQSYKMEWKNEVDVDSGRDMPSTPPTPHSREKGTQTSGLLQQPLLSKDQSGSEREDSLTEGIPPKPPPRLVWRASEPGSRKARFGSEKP
Procedure: as §1

[4] = molecular target: T3, NHE5 (Homo sapiens, UniProt Q14940); experiment: NHE inhibition, NHE5 subtype; conditions: in a therapeutically utilizable concentration range
T3 sequence (Q14940 1-896): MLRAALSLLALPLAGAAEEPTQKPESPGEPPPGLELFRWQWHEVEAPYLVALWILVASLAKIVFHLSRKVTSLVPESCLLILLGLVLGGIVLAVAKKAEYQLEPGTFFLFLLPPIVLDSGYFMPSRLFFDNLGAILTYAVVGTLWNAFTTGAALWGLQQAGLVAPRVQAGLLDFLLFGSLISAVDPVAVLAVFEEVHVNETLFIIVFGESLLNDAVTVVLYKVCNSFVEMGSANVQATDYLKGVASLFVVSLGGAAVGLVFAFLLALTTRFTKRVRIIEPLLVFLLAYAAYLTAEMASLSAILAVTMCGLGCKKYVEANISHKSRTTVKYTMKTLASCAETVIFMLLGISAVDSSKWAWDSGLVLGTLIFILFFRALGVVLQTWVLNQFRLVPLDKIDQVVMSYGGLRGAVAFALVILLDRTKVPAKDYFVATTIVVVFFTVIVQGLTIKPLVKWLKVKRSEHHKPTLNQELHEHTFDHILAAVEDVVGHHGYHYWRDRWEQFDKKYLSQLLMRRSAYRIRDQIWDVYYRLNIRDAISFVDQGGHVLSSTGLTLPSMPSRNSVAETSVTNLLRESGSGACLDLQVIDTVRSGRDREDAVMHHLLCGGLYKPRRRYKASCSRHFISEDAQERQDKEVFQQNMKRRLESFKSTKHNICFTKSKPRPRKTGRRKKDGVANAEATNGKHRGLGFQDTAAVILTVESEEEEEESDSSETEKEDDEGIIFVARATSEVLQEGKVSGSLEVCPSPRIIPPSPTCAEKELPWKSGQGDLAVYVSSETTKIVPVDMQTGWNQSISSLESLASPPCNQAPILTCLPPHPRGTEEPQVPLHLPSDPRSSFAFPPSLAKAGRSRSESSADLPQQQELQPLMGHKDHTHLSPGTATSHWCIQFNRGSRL

IC50 [1] [nM]	SMILES	also measured
1430	Cc1cccc(Cl)c1Nc1nc2cscc2[nH]1 [Example 9, 2-(2-Chloro-6-methylphenylamino)-1H-thieno[3,4-d]imidazole hydrochloride]	–
220	Clc1cccc(Cl)c1Nc1nc2cscc2[nH]1 [Example 2, 2-(2,6-Dichlorophenylamino)-1H-thieno[3,4-d]imidazole hydrochloride]	–
–	Cc1csc(Cl)c1NC1=NCCN1 [tiamenidine]	inhibitory action on NHE3 ([1]; in a therapeutically utilizable concentration range): no relevant inhibitory actions; inhibitory action on NHE1 [2]: no relevant inhibitory actions; inhibitory action on NHE2 [3]: no relevant inhibitory actions; inhibitory action on NHE5 [4]: no relevant inhibitory actions
6510	FC(F)(F)c1ccccc1Nc1nc2cscc2[nH]1 [Example 6, 2-(2-Trifluoromethylphenylamino)-1H-thieno[3,4-d]imidazole hydrochloride]	–
150	Cc1csc(Cl)c1Nc1nc2cscc2[nH]1 [Example 5, 2-(2-Chloro-4-methyl-3-thienylamino)-1H-thieno[3,4-d]imidazole hydrochloride]	–
320	Clc1csc(Cl)c1Nc1nc2cscc2[nH]1 [Example 10, 2-(2,4-Dichloro-3-thienylamino)-1H-thieno[3,4-d]imidazole hydrochloride]	–
